Data published in article PMC10797637 (Journal of natural products, 2023).

What was measured:
[1] = test system: HepG2 human hepatocytes; experiment: Human cell cytotoxicity assay; format: cell-based; conditions: HepG2, read-out: HepG2 EC50
[2] = test system: P. falciparum Dd2; experiment: Plasmodium falciparum SYBR Green I assay; format: cell-based; conditions: relative to HepG2 cytotoxicity

Structure (SMILES) | EC50 [1] [µM] | P. falciparum SI [2]
COC(=O)[C@@]12Oc3cc4c(c(O)c3C(=O)C1=C(O)CC[C@@H]2O)[C@@H]1C=C[C@@]2(C4)C(=O)c3cc(C)cc(O)c3C(=O)[C@]2(O)C1=O [compound 1, xanthoquinodin NPDG A1] | > 25 | –
COC(=O)[C@]1([C@@H](O)CCC(=O)O)CC(=O)c2c(cc3c(c2O)[C@@H]2C=C[C@@]4(C3)C(=O)c3cc(C)cc(O)c3C(O)=C4C2=O)O1 [compound 3, xanthoquinodin NPDG A3] | > 25 | –
COC(=O)[C@]1([C@@H](O)CCC(=O)O)CC(=O)c2c(cc3c(c2O)[C@@H]2C=C[C@@]4(C3)C(=O)c3cc(C)cc(O)c3C(=O)[C@]4(O)C2=O)O1 [compound 4, Xanthoquinodin NPDG A4] | > 25 | –
COC(=O)[C@]1([C@@H]2CCC(=O)O2)CC(=O)c2c(cc3c(c2O)[C@@H]2C=C[C@@]4(C3)C(=O)c3cc(C)cc(O)c3C(=O)[C@]4(O)C2=O)O1 [compound 5, Xanthoquinodin NPDG A5] | > 25 | –
COC(=O)[C@]12Oc3c(c(O)cc4c3[C@@H]3C=C[C@@]5(C4)C(=O)c4cc(C)cc(O)c4C(=O)[C@]5(O)C3=O)C(=O)C1=C(O)CC[C@@H]2O [compound 6, xanthoquinodin NPDG B1] | > 25 | –
COC(=O)[C@@]12Oc3cc4c(c(O)c3C(=O)C1=C(O)CC[C@@H]2O)[C@@H]1C=C[C@@]2(C4)C(=O)c3cc(C)cc(O)c3C(O)=C2C1=O [compound 7, xanthoquinodin A1] | > 25 | –
COC(=O)[C@]12Oc3cc4c(c(O)c3C(=O)C1=C(O)CC[C@@H]2O)[C@@H]1C=C[C@@]2(C4)C(=O)c3cc(C)cc(O)c3C(O)=C2C1=O [compound 8, xanthoquinodin A2] | > 25 | >50
COC(=O)[C@]1([C@@H]2CCC(=O)O2)CC(=O)c2c(cc3c(c2O)[C@@H]2C=C[C@@]4(C3)C(=O)c3cc(C)cc(O)c3C(O)=C4C2=O)O1 [compound 9, xanthoquinodin A3] | > 25 | –
COC(=O)[C@]1([C@@H]2CCC(=O)O2)CC(=O)c2c(O)cc(C)cc2O1 [compound 12, gonytolide C] | > 25 | –
